The subject of this experiment is HIV-1 pseudotyped virus. The experiment in a line: HIV-1 pseudotyped virus assay (luciferase reporter gene, single cycle of infection). The format is cell-based. The settings on record: Human immunodeficiency virus 1, CCR5, 72 h, read-out: Activity (antiviral activity, IC50). The text has this: In this example are illustrated experimental procedures for determining biological activity, such as antiviral activity. For determining biological activity, an HIV-1 infection assay was used to determine the antiviral potency for compounds of the present invention.
For determining biological activity, an HIV-1 pseudotyped virus assay was used to determine the respective antiviral potencies of each compound tested in the assay for comparison. The pseudotyped assay scores for a reduction in infection as indicated by decreased signal from the reporter gene encoding a luciferase enzyme (“reporter gene”). The assay employs cell lines expressing CD4 and either of the primary chemokine receptors (CCR5 or CXCR4) that HIV uses as a co-receptor (“target cells”). Pseudotyped virus was prepared by co-transfection of 293T cells with: 1) a plasmid construct carrying the HIV-1 envelope of choice, in combination with 2) a pseudotyped virus backbone construct in which (a) envelope expression has been abrogated due to a frameshift in the envelope sequence, and (b) the reporter gene replaces nef. Expression of HIV-1 envelope on 293T packaging cells results in the production of a pseudotyped virus carrying the reporter gene that is capable of a single cycle of infection.
The compounds of the present invention being tested for antiviral activity were serially diluted and dose responses determined in duplicate in two separate experiments. The compounds to be tested were added directly to the plated, target cells, followed by the addition of pseudotyped virus described above. The cells were cultured for three days prior harvest. Media and compound were removed, the cell monolayer was washed, lysed by detergent, and then frozen at −80 degrees C. for a minimum of 30 minutes. Following thawing and acclimation to room temperature, luciferase production was quatified by injecting 100 […]I of a substrate (of the enzyme encoded by the reporter gene) into each well followed by detecting the signal (light emitted from the interaction between the enzyme and substrate) after 5 seconds. In the pseudotyped assay, a 50% reduction in signal is significant, and provides the primary cutoff value for assessing antiviral activity (“IC50” is defined as the dilution resulting in a 50% reduction in enzymatic activity as interpolated from a titration curve). Representative compounds according to the present invention, and their antiviral activity, are illustrated in Table 3.
In the case of `C[C@@H]1CN(C(=O)c2ccccc2)CCN1C(=O)C(=O)c1ccc(-c2cnco2)cc1` [Example 101, 1-((R)-4-Benzoyl-2-methyl-piperazin-1-yl)-2-(4-oxazol-5-yl-phenyl)-ethane-1,2-dione], the IC50 was under 5 µM.

On to `Cc1cc(-c2ccc(C(=O)C(=O)N3CCN(C(=O)c4ccccc4)C[C@H]3C)cc2)on1` [Example 102, 1-((R)-4-Benzoyl-2-methyl-piperazin-1-yl)-2-[4-(3-methyl-isoxazol-5-yl)-phenyl]-ethane-1,2-dione], for which the half-inhibitory concentration (IC50) is under 5 µM.

Take `C[C@@H]1CN(C(=O)c2ccccc2)CCN1C(=O)C(=O)c1ccc(-c2nccs2)cc1` [Example 103, 1-((R)-4-Benzoyl-2-methyl-piperazin-1-yl)-2-(4-thiazol-2-yl-phenyl)-ethane-1,2-dione]: the IC50 was under 5 µM.

In the case of `Cc1nc(-c2ccc(C(=O)C(=O)N3CCN(C(=O)c4ccccc4)C[C@H]3C)cc2)cs1` [Example 104, 1-((R)-4-Benzoyl-2-methyl-piperazin-1-yl)-2-[4-(2-methyl-thiazol-4-yl)-phenyl]-ethane-1,2-dione], the IC50 is over 5 µM.

As to `C[C@@H]1CN(C(=O)c2ccccc2)CCN1C(=O)C(=O)c1ccc(-c2nnn(C)n2)cc1` [Example 105, 1-((R)-4-Benzoyl-2-methyl-piperazin-1-yl)-2-[4-(2-methyl-2H-tetrazol-5-yl)-phenyl]-ethane-1,2-dione], the IC50 was under 5 µM.

`CO/N=C(\c1ccccc1)N1CCN(C(=O)C(=O)c2ccc(-c3cnco3)cc2)[C@H](C)C1` [Example 106, 1-((R)-4-{[Methoxyimino]-phenyl-methyl}-2-methyl-piperazin-1-yl)-2-(4-oxazol-5-yl-phenyl)-ethane-1,2-dione]: the IC50 was under 5 µM.

Regarding `Cc1noc(-c2ccc(S(=O)(=O)N3CCN(C(=O)c4ccccc4)CC3C)s2)n1` (stereo not shown) [Example 107, {3-Methyl-4-[5-(3-methyl-[1,2,4]oxadiazol-5-yl)-thiophene-2-sulfonyl]-piperazin-1-yl}-phenyl-methanone], the concentration for half-maximal inhibition (IC50) was over 5 µM.

In the case of `CON(C)C(=O)c1ccc(S(=O)(=O)N2CCN(C(=O)c3ccccc3)CC2C)s1` (stereo not shown) [Example 108, 5-(4-Benzoyl-2-methyl-piperazine-1-sulfonyl)-thiophene-2-carboxylic acid methoxy-methyl-amide], the IC50 was under 5 µM.

On to `CC1CN(C(=O)c2ccccc2)CCN1S(=O)(=O)c1ccc(-n2cncn2)s1` (stereo not shown) [Example 109, [3-Methyl-4-(5-[1,2,4]triazol-1-yl-thiophene-2-sulfonyl)-piperazin-1-yl]-phenyl-methanone], for which the IC50 is over 5 µM.

Take `CC1CN(C(=O)c2ccccc2)CCN1S(=O)(=O)c1ccc(C(=O)c2ccco2)s1` (stereo not shown) [Example 110, {4-[5-(Furan-2-carbonyl)-thiophene-2-sulfonyl]-3-methyl-piperazin-1-yl}-phenylmethanone]: the IC50 is over 5 µM.

Consider `CC1CN(C(=O)c2ccccc2)CCN1S(=O)(=O)c1ccc(C(=O)c2cnc[nH]2)s1` (stereo not shown) [Example 111, {4-[5-(3H-Imidazole-4-carbonyl)-thiophene-2-sulfonyl]-3-methyl-piperazin-1-yl}-phenyl-methanone], for which the half-maximal inhibitory concentration (IC50) is over 5 µM.

With `CC1CN(C(=O)c2ccccc2)CCN1S(=O)(=O)c1ccc(C(=O)c2ccon2)s1` (stereo not shown) [Example 112, {4-[5-(Isoxazole-3-carbonyl)-thiophene-2-sulfonyl]-3-methyl-piperazin-1-yl}-phenyl-methanone], the IC50 was over 5 µM.

`CC1CN(C(=O)c2ccccc2)CCN1S(=O)(=O)c1cccc(-n2ccnn2)c1` (stereo not shown) [Example 113, [3-Methyl-4-(3-[1,2,3]triazol-1-yl-benzenesulfonyl)-piperazin-1-yl]-phenyl-methanone]: the IC50 was over 5 µM.

On to `CC1CN(C(=O)c2ccccc2)CCN1S(=O)(=O)c1cccc(-n2cncn2)c1` (stereo not shown) [Example 114, [3-Methyl-4-(3-[1,2,4]triazol-1-yl-benzenesulfonyl)-piperazin-1-yl]-phenyl-methanone], for which the IC50 was over 5 µM.

On to `CC1CN(C(=O)c2ccccc2)CCN1S(=O)(=O)c1cccc(-n2cccn2)c1` (stereo not shown) [Example 115, [3-Methyl-4-(3-pyrazol-1-yl-benzenesulfonyl)-piperazin-1-yl]-phenyl-methanone], for which the IC50 is over 5 µM.

On to `CC1CN(C(=O)c2ccccc2)CCN1S(=O)(=O)c1ccc(-n2ccnn2)cc1` (stereo not shown) [Example 116, [3-Methyl-4-(4-[1,2,3]triazol-1-yl-benzenesulfonyl)-piperazin-1-yl]-phenyl-methanone], for which the IC50 is over 5 µM.

Regarding `CC1CN(C(=O)c2ccccc2)CCN1S(=O)(=O)c1ccc(-n2nccn2)cc1` (stereo not shown) [Example 117, [3-methyl-4-(4-[1,2,3]triazol-2-yl-benzenesulfonyl)-piperazin-1-yl]-phenyl-methanone], the 50% inhibitory concentration (IC50) was over 5 µM.

As to `CC1CN(C(=O)c2ccccc2)CCN1S(=O)(=O)c1ccc(-n2cncn2)cc1` (stereo not shown) [Example 118, [3-Methyl-4-(4-[1,2,4]triazol-1-yl-benzenesulfonyl)-piperazin-1-yl]-phenyl-methanone], the IC50 was over 5 µM.

For `CC1CN(C(=O)c2ccccc2)CCN1S(=O)(=O)c1ccc(-n2cccn2)cc1` (stereo not shown) [Example 119, [3-Methyl-4-(4-pyrazol-1-yl-benzenesulfonyl)-piperazin-1-yl]-phenyl-methanone], the 50% inhibitory concentration (IC50) was over 5 µM.

`C[C@@H]1CN(C(=O)c2ccccc2)CCN1S(=O)(=O)c1ccc(-c2c[nH]nn2)cc1` [Example 120, {(R)-3-Methyl-4-[4-(1H-[1,2,3]triazol-4-yl)-benzenesulfonyl]-piperazin-1-yl)-phenyl-methanone]: the IC50 is under 5 µM.

For `CC(C)Cn1cc(-c2ccc(S(=O)(=O)N3CCN(C(=O)c4ccccc4)C[C@H]3C)cc2)nn1` [Example 121, {(R)-4-[4-(1-Isobutyl-1H-[1,2,3]triazol-4-yl)-benzenesulfonyl]-3-methyl-piperazin-1-yl}-phenyl-methanone], the half-maximal inhibitory concentration (IC50) was over 5 µM.

With `C[C@@H]1CN(C(=O)c2ccccc2)CCN1S(=O)(=O)c1ccc(-c2cn(Cc3ccccc3)nn2)cc1` [Example 122, [(R)-4-[4-(1-Benzyl-1H-[1,2,3]triazol-4-yl)-benzenesulfonyl]-3-methyl-piperazine-1-yl}-phenyl-methanone], the IC50 is over 5 µM.

As for `CC(=O)c1ccc(-n2cc(-c3ccc(S(=O)(=O)N4CCN(C(=O)c5ccccc5)C[C@H]4C)cc3)nn2)cc1` [Example 123], the IC50 was over 5 µM.

In the case of `C[C@@H]1CN(C(=O)c2ccccc2)CCN1S(=O)(=O)c1ccc(-c2cc(-c3ccccc3)no2)cc1` [Example 124, {(R)-3-Methyl-4-[4-(3-phenyl-isoxazol-5-yl)-benzenesulfonyl]-piperazin-yl}-phenyl-methanone], the half-maximal inhibitory concentration (IC50) is over 5 µM.

Regarding `C[C@@H]1CN(C(=O)c2ccccc2)CCN1S(=O)(=O)c1ccc(-c2c[nH]nn2)s1` [Example 125, {(R)-3-Methyl-4-[5-(1H-[1,2,3]triazol-4-yl)-thiophene-2-sulfonyl]-piperazin-1-yl}-phenyl-methanone], the half-maximal inhibitory concentration (IC50) is over 5 µM.

As for `C[C@@H]1CN(C(=O)c2ccccc2)CCN1S(=O)(=O)c1ccc(-c2cn(Cc3ccccc3)nn2)s1` [Example 127, {(R)-4-[5-(1-Benzyl-1H-[1,2,3]triazol-4-yl)-thiophene-2-sulfonyl]-3-methyl-piperazin-1-yl}-phenyl-methanone], the IC50 is over 5 µM.

With `CC(=O)c1ccc(-n2cc(-c3ccc(S(=O)(=O)N4CCN(C(=O)c5ccccc5)C[C@H]4C)s3)nn2)cc1` [Example 128], the half-inhibitory concentration (IC50) is over 5 µM.

For `Cc1c[nH]c(-n2cc(-c3ccc(S(=O)(=O)N4CCN(C(=O)c5ccccc5)C[C@H]4C)s3)nn2)n1` [Example 129, ((R)-3-Methyl-4-{5-[1-(4-methyl-1H-imidazol-2-yl)-1H-[1,2,3]triazol-4-yl]-thiophene-2-sulfonyl}-piperazin-1-yl)-phenyl-methanone], the IC50 is over 5 µM.

As to `CCOC(=O)c1sc(SC)nc1-n1cc(-c2ccc(S(=O)(=O)N3CCN(C(=O)c4ccccc4)C[C@H]3C)s2)nn1` [Example 130, 4-{4-[5-((R)-4-Benzoyl-2-methyl-piperazine-1-sulfonyl)-thiophen-2-yl]-[1,2,3]triazol-1-yl}-2-methylsulfanyl-thiazole-5-carboxylic acid ethyl ester], the IC50 was over 5 µM.

Take `C[C@@H]1CN(C(=O)c2ccccc2)CCN1S(=O)(=O)c1ccc(-c2cc(-c3ccccc3)no2)s1` [Example 131, {(R)-3-Methyl-4-[5-(3-phenyl-sioxazol-5-yl)-thiophene-2-sulfonyl]-piperazin-1-yl}-phenyl-methanone]: the IC50 was over 5 µM.

With `C[C@@H]1CN(C(=O)c2ccccc2)CCN1S(=O)(=O)c1ccc(-c2cc(C(=O)c3ccc(Cl)cc3)no2)s1` [Example 132, ((R)-4-{5-[3-(4-Chloro-benzoyl)-isoxazol-5-yl]-thiophene-2-sulfonyl}-3-methyl-piperazin-1-yl)-phenyl-methanone], the IC50 was over 5 µM.

These data come from US20070259879A1, “Piperazine and piperidine biaryl derivatives” (priority 2006, published 2007).
